Test results published in patent publication US20150175599A1, “FAAH Inhibitors” (Ironwood Pharmaceuticals, Inc., priority 2010, published 2015).

Legend:
FAAH = target: T1, FAAH (Homo sapiens, UniProt O00519); test: FAAH inhibition, human brain membrane homogenate assay; format: biochemical; settings: human brain homogenate; average activity; read-out: Human brain Extract FAAH IC50
T1 construct: Reactions were initiated by adding 12.5 μg of brain microsome; tissue ABS, Inc; host or cells: human brain cerebral cortex, membrane/microsome fraction pooled from 3 donors
T1 sequence (O00519 1-579): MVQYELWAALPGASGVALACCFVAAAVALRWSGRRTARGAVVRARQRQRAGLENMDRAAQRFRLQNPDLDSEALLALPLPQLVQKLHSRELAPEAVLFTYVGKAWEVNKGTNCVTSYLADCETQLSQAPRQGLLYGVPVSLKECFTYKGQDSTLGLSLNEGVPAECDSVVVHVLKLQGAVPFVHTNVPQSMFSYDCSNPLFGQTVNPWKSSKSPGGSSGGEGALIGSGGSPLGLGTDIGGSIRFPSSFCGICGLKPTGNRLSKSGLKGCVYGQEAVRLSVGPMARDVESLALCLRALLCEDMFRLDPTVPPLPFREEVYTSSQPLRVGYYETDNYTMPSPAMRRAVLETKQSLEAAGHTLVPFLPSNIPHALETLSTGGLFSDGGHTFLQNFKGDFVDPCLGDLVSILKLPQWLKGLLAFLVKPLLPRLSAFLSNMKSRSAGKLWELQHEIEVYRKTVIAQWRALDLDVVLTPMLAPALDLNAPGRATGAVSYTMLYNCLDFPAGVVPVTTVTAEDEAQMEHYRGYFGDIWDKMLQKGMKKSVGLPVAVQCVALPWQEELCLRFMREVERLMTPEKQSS

human FAAH-1 = target: T2, human FAAH-1 (Homo sapiens, UniProt O00519); test: Whole cell anandamide hydrolysis assay (HeLa clone 5c5 transfected with human FAAH-1); format: cell-based; settings: HeLa clone 5c5 expressing human FAAH-1; read-out: human FAAH whole cell IC50
T2 sequence (O00519 1-579): T1 sequence (O00519 1-579)
Method: FAAH activity was assayed in whole cells using methods disclosed previously (Maccarone et al., 1998 J Biol. Chem. 273:32332 and Bisogno et al., 1997 J Biol. Chem. 272:3315). In addition to the cell lines described in Maccarone et al. and Bisogno et al., MCF7 (ATCC designation HTB-22) and T84 (ATCC designation CCL-248) cell lines were also used in these assays.
cDNA expression clone for human FAAH-1 (in pcDNA3 vector) (Genbank Accession U82535; obtained from Benjamin Cravatt, Scripps Research Institute, La Jolla, Calif.) was linearized by digestion with BglII (New England Biolabs) and transfected by calcium phosphate into human HeLa cells (ATCC catalog #CCL-2). […] Following transfection, a stable HeLa-derived clone, designated 5c5, was isolated by single colony purification and expanded and maintained in modified Eagles medium (MEM; VWR catalog #45000-300) containing 10% fetal bovine serum (FBS), 2 mM L-glutamine, and 0.5 mg/mL G-418 (Sigma catalog #G5013).
Clone 5c5 (50,000 cells in 150 μL) was seeded into 96-well plates and incubated overnight (5% CO2, 37° C.). Media was carefully replaced with 180 μL DMEM/F12 medium (VWR catalog #45000-350) containing 15 mM HEPES, pH 7.4 and 0.1% fatty acid free BSA (Sigma catalog #A0281). Then, 2 μL of 100× desired final concentrations of certain exemplary compounds described herein were made up in DMSO, added to wells containing cells, and plates were incubated at 37° C. for 10 min. Next, 20 μL of 5 μM anandamide (Cayman catalog #90050) spiked with 8 μCi of anandamide-(ethanolamine-1-[^3H]) (American Radiolabeled Chemicals, Inc., catalog #ART 626) was added to the cells and the plates were incubated for an additional 15 min at 37° C. The reactions were terminated by chilling the plates on ice and adding 20 μL of 0.5M of potassium phosphate buffer (adjusted to pH 2.1 with phosphoric acid).
The acidified reactions were transferred to 96-well filter plates (0.25 mL capacity/well, 1.2 micron glass fiber pre-filter packed above 0.65 micron pore-size PVDF membrane, Millipore catalog MSFCN6B50) containing 25 μL charcoal (neutral activated carbon, Fisher Scientific catalog C170-500) per well. Prior to the assay, charcoal was measured and loaded onto the plate using an aluminum 96-well column loading device (Millipore catalog MACL09625). The filter plate was assembled over an empty 96-well plate (Costar) using a centrifuge alignment frame (Millipore catalog MACF09604) to allow for collection of the filtrate in the receiver plate. The charcoal glass-fiber filter plates were pre-washed with methanol by centrifugation 650×g for 10 min). Next, 80 μL of water was added to the wells of the pre-washed 96 well charcoal filter plate. Then, 90 μL of the acidified reaction mixture was added to the water in the wells of the charcoal plate. The samples were centrifuged as above. The substrate remained bound to the charcoal, whereas the [^3H]-ethanolamine product formed flowed through and was transferred to the microplates containing scintillation cocktail and quantified in a micro-plate scintillation counter (Perkin-Elmer Microbeta). Control reactions with either no cells or cells treated with DMSO alone were performed in triplicate and used to define background (no cells) and 100% activity (DMSO alone).
Following subtraction of background radioactivity, data were expressed as percent inhibition relative to 100% activity and fit with a nonlinear regression curve using GraphPad Prism Software (GraphPad Software Inc). IC50 values were calculated from the resulting dose-response curves constrained at top and bottom to 100% and 0%, respectively.

| SMILES | IC50 (FAAH) | IC50 (human FAAH-1) |
| --- | --- | --- |
| COc1cc(NC(=O)C(=O)c2c(C)n(Cc3ccc(Cl)cc3)c3ccc(N)c(Cl)c23)ccn1 [Compound 73, 2-(5-amino-4-chloro-1-(4-chlorobenzyl)-2-methyl-1H-indol-3-yl)-N-(2-methoxypyridin-4-yl)-2-oxoacetamide] | 100 to 1000 nM | < 100 nM |
| COc1ccc2c(C(=O)C(=O)Nc3ccnc(OC)c3)c(C)n(Cc3ccc(Cl)cc3)c2c1 [Compound 48, 2-(1-(4-chlorobenzyl)-6-methoxy-2-methyl-1H-indol-3-yl)-N-(2-methoxypyridin-4-yl)-2-oxoacetamide] | < 100 nM | < 100 nM |
| COc1ccc2c(c1)c(C(=O)C(=O)Nc1ccnc(OC)c1F)c(C)n2Cc1ccc(Cl)cc1 [Compound 53, 2-(1-(4-chlorobenzyl)-5-methoxy-2-methyl-1H-indol-3-yl)-N-(3-fluoro-2-methoxypyridin-4-yl)-2-oxoacetamide] | 100 to 1000 nM | < 100 nM |
| COc1cc(NC(=O)C(=O)c2c(C)n(Cc3ccc(Cl)cc3)c3cc(Cl)c(OC)cc23)ccn1 [Compound 55, 2-(6-chloro-1-(4-chlorobenzyl)-5-methoxy-2-methyl-1H-indol-3-yl)-N-(2-methoxypyridin-4-yl)-2-oxoacetamide] | < 100 nM | < 100 nM |
| COc1ccc2c(c1)c(C(=O)C(=O)Nc1ccnc(OC)c1)c(C)n2Cc1ccncc1 [Compound 16, 2-(5-methoxy-2-methyl-1-(pyridin-4-ylmethyl)-1H-indol-3-yl)-N-(2-methoxypyridin-4-yl)-2-oxoacetamide] | 100 to 1000 nM | < 100 nM |
| COc1cc(NC(=O)C(=O)c2c(C)n(Cc3ccc(Cl)cc3)c3ccc(OC(C)=O)cc23)ccn1 [Compound 1, 1-(4-chlorobenzyl)-3-(2-(2-methoxypyridin-4-ylamino)-2-oxoacetyl)-2-methyl-1H-indol-5-yl acetate] | < 100 nM | < 100 nM |
| COc1cc(NC(=O)C(=O)c2c(C)n(Cc3ncc(Cl)cc3Cl)c3cc(Cl)c(OC)cc23)ccn1 [Compound 70, 2-(6-chloro-1-((3,5-dichloropyridin-2-yl)methyl)-5-methoxy-2-methyl-1H-indol-3-yl)-N-(2-methoxypyridin-4-yl)-2-oxoacetamide] | < 100 nM | < 100 nM |
| COc1cc(NC(=O)C(=O)c2c(C)n(Cc3ccc(Cl)cc3)c3ccc(NC(C)=O)cc23)ccn1 [Compound 22, 2-(5-acetamido-1-(4-chlorobenzyl)-2-methyl-1H-indol-3-yl)-N-(2-methoxypyridin-4-yl)-2-oxoacetamide] | < 100 nM | < 100 nM |
| COc1ccc2c(c1)c(C(=O)C(=O)Nc1ccnc(OC)c1)c(C)n2Cc1ncc(Cl)cc1OC [Compound 100, 2-(1-((5-chloro-3-methoxypyridin-2-yl)methyl)-5-methoxy-2-methyl-1H-indol-3-yl)-N-(2-methoxypyridin-4-yl)-2-oxoacetamide] | 100 to 1000 nM | < 100 nM |
| COc1cc(NC(=O)C(=O)c2c(C)n(Cc3ccc(Cl)cc3)c3ccc(OC)nc23)ccn1 [Compound 36, 2-(1-(4-chlorobenzyl)-5-methoxy-2-methyl-1H-pyrrolo[3,2-b]pyridin-3-yl)-N-(2-methoxypyridin-4-yl)-2-oxoacetamide] | < 100 nM | < 100 nM |
| COc1cc(NC(=O)C(=O)c2c(C)n(Cc3ccc(Cl)cn3)c3ccccc23)ccn1 [Compound 68, 2-(1-((5-chloropyridin-2-yl)methyl)-2-methyl-1H-indol-3-yl)-N-(2-methoxypyridin-4-yl)-2-oxoacetamide] | < 100 nM | < 100 nM |
| COc1cc(NC(=O)C(=O)c2c(C)n(Cc3ccc(Cl)cc3)c3cccc(OC)c23)ccn1 [Compound 45, 2-(1-(4-chlorobenzyl)-4-methoxy-2-methyl-1H-indol-3-yl)-N-(2-methoxypyridin-4-yl)-2-oxoacetamide] | < 100 nM | < 100 nM |
| COc1cc(NC(=O)C(=O)c2c(C)n(Cc3ccc(Cl)cn3)c3ccc(C)cc23)ccn1 [Compound 61, 2-(1-((5-chloropyridin-2-yl)methyl)-2,5-dimethyl-1H-indol-3-yl)-N-(2-methoxypyridin-4-yl)-2-oxoacetamide] | < 100 nM | < 100 nM |
| CNCc1ccc2c(c1)c(C(=O)C(=O)Nc1ccnc(OC)c1)c(C)n2Cc1ccc(Cl)cc1 [Compound 25, 2-(1-(4-chlorobenzyl)-2-methyl-5-((methylamino)methyl)-1H-indol-3-yl)-N-(2-methoxypyridin-4-yl)-2-oxoacetamide] | 100 to 1000 nM | 100 to 1000 nM |
| COc1cc(NC(=O)C(=O)c2c(C)n(Cc3ccc(Cl)cn3)c3ccc([N+](=O)[O-])cc23)ccn1 [Compound 62, 2-(1-((5-chloropyridin-2-yl)methyl)-2-methyl-5-nitro-1H-indol-3-yl)-N-(2-methoxypyridin-4-yl)-2-oxoacetamide] | < 100 nM | < 100 nM |
| COc1cnc2c(c1)c(C(=O)C(=O)Nc1ccnc(OC)c1)c(C)n2Cc1ncc(Cl)cc1Cl [Compound 29, 2-(1-((3,5-dichloropyridin-2-yl)methyl)-5-methoxy-2-methyl-1H-pyrrolo[2,3-b]pyridin-3-yl)-N-(2-methoxypyridin-4-yl)-2-oxoacetamide] | < 100 nM | < 100 nM |
| COc1ccc2c(c1)c(C(=O)C(=O)Nc1ccnc(OC)c1Cl)c(C)n2Cc1ccc(Cl)cc1 [Compound 52, N-(3-chloro-2-methoxypyridin-4-yl)-2-(1-(4-chlorobenzyl)-5-methoxy-2-methyl-1H-indol-3-yl)-2-oxoacetamide] | > 10000 nM | 100 to 1000 nM |
| COCc1ccc2c(c1)c(C(=O)C(=O)Nc1ccnc(OC)c1)c(C)n2Cc1ccc(Cl)cc1 [Compound 11, 2-(1-(4-chlorobenzyl)-5-(methoxymethyl)-2-methyl-1H-indol-3-yl)-N-(2-methoxypyridin-4-yl)-2-oxoacetamide] | < 100 nM | < 100 nM |
| COc1ccc2c(c1)c(C(=O)C(=O)Nc1ccnc(OC)c1)c(C)n2Cc1ccccn1 [Compound 77, 2-(5-methoxy-2-methyl-1-(pyridin-2-ylmethyl)-1H-indol-3-yl)-N-(2-methoxypyridin-4-yl)-2-oxoacetamide] | 100 to 1000 nM | < 100 nM |
| COc1cc(NC(=O)C(=O)c2c(C)n(Cc3ccc(Cl)cc3)c3ccc(N)cc23)ccn1 [Compound 20, 2-(5-amino-1-(4-chlorobenzyl)-2-methyl-1H-indol-3-yl)-N-(2-methoxypyridin-4-yl)-2-oxoacetamide] | < 100 nM | < 100 nM |
